Experimental data from US7018396B2, “Method of treating acne” (New England Medical Center Hospitals, Inc., priority 2001, dated 2006).

System: sebaceous glands present in skin of the hamster ear
Assay: Hamster ear model: topical uptake of ICG into sebaceous glands (white light and fluorescence micrographs)
Type: in vivo
Settings: 24 hours, 810 nm illumination, 840 nm bandpass filter
Protocol: A chromophore is considered “selectively introduced” to sebaceous glands according to the invention if greater than or equal to about 90% of the chromophore remaining associated with the skin after removal of excess chromophore preparation from the skin surface is observed in sebaceous glands. The proportion of a particular chromophore localized to sebaceous glands from a particular chromophore preparation (e.g., chromophore in oil or chromophore in liposomes or lipid suspension) is determined using an appropriate animal model, such as the hamster ear model described herein. Hamsters are known to have sebaceous glands in their ears. These glands are typically on the order of 200 μm in diameter, making them somewhat larger than typical sebaceous glands in humans. Nonetheless, the hamster ear is a convenient and instructive model for human skin and sebaceous glands.
For example, the non-lipophilic chromophore indocyanine green was introduced to sebaceous glands present in skin of the hamster ear according to the following method. The lipid chromophore suspension was topically applied to hamster ears and allowed to travel into the pores and sebaceous glands for 24 hours. After this time, the hamsters were euthanized and their ears were examined for evidence of ICG in the sebaceous glands. […] ICG fluorescence (840 nm) is stimulated by irradiation with 810 nm light. […]

CC1(C)C(/C=C/C=C/C=C/C=C2\N(CCCCS(=O)(=O)O)c3ccc4ccccc4c3C2(C)C)=[N+](CCCCS(=O)(=O)[O-])c2ccc3ccccc3c21 [indocyanine green]
localization of chromophore in skin: present in the sebaceous glands but not in the tissue between the glands
